Results as given in the supplement of paper PMC11208160.

experiment: recombinant UMI read abundance after kanamycin selection (control-corrected) (log10(CPM+1)); higher = more efficient recombination; extreme values may be limits of the assay; sequences stand for … in AGTGCAGAGAAAATCGGCCAGTTTTCTCTGCCTGCAGTCCGCATGCCGTGGGACCCCTTGGGTTCTAACCTGTTGCCTAGATTTATGCAGCGGACTGCCTTTCTCCCAAAGTGATAAACCGG…AGGTTGGTTTCACT; site = the 11-nt donor
Summary of the method: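 Pooled Escherichia coli screen of donor and donor-binding-loop pairs for the IS621 bridge recombinase. Each pair sits with a 12-nt UMI on a plasmid carrying a promoterless kanamycin gene. The library was co-electroporated with a target plasmid encoding a fixed target and T7-inducible recombinase, then plated with IPTG (0.07 mM) plus kanamycin, or unselected, each in two replicates. Recombinant UMIs were PCR-amplified across the donor–target junction and sequenced. Counts became CPM, averaged over replicates, scaled by control-derived factors and reported as log10(CPM+1).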
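Note: IS621 bridge recombinase in Escherichia coli cells against a fixed T5 target plasmid.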

Q: For “CACTTGGCATGGACCGGTTTTCCCGGTAATCCGTATTTGGG (site CACTTGGCTTC)”, which “recombinant UMI read abundance (log10)” value is on record?
A: Its value is 0.0398.

Q: Which “recombinant UMI read abundance (log10)” value does the source give for “CACTTGTCATGGACCGGTTTTCCCGGTAATCCGTATTTGGA (site CACTTGACTTC)” here?
A: The value was 0.0147.

Q: With “CACTTGTCATGGACCGGTTTTCCCGGTAATCCGTATTTGGA (site CACTTGCCTTC)” as the sequence, how does the “recombinant UMI read abundance (log10)” value read?
A: The value was 0.0181.

Q: With “CACTTGTCATGGACCGGTTTTCCCGGTAATCCGTATTTGGA (site CACTTGGCTTC)” as the sequence, how does the “recombinant UMI read abundance (log10)” value read?
A: The value was 0.00318.

Q: With “CACTTGTCATGGACCGGTTTTCCCGGTAATCCGTATTTGGA (site CACTTGTCTTC)” as the sequence, how does the “recombinant UMI read abundance (log10)” value read?
A: The value was 1.84.

Q: For “CAGAAGTCATGGACCGGTTTTCCCGGTAATCCGTATTTGAC (site CAGAAGTCTGT)”, which “recombinant UMI read abundance (log10)” value is on record?
A: Its value is 1.46.

Q: With “CAGAATACATGGACCGGTTTTCCCGGTAATCCGTATTTGCA (site AAGAATACTTG)” as the sequence, how does the “recombinant UMI read abundance (log10)” value read?
A: Its value is 0.616.

Q: For “CAGAATACATGGACCGGTTTTCCCGGTAATCCGTATTTGCA (site CAGAATACTTG)”, which “recombinant UMI read abundance (log10)” value is on record?
A: The value was 2.15.

Q: Which “recombinant UMI read abundance (log10)” value does the source give for “CAGAATACATGGACCGGTTTTCCCGGTAATCCGTATTTGCA (site GAGAATACTTG)” here?
A: Its value is 0.

Q: With “CAGAATACATGGACCGGTTTTCCCGGTAATCCGTATTTGCA (site TAGAATACTTG)” as the sequence, how does the “recombinant UMI read abundance (log10)” value read?
A: Its value is 0.38.

Q: Which “recombinant UMI read abundance (log10)” value does the source give for “CAGAATCCATGGACCGGTTTTCCCGGTAATCCGTATTTGTC (site CAGAATCCTGA)” here?
A: Its value is 2.5.

Q: For “CAGAATCCATGGACCGGTTTTCCCGGTAATCCGTATTTGTC (site CGGAATCCTAA)”, which “recombinant UMI read abundance (log10)” value is on record?
A: Its value is 0.

Q: For “CAGACATCATGGACCGGTTTTCCCGGTAATCCGTATTTGAG (site CAGACATCTCT)”, which “recombinant UMI read abundance (log10)” value is on record?
A: Its value is 3.06.

Q: For “CAGACCGCATGGACCGGTTTTCCCGGTAATCCGTATTTGTC (site CAGACCGCTGA)”, which “recombinant UMI read abundance (log10)” value is on record?
A: Its value is 3.23.

Q: Which “recombinant UMI read abundance (log10)” value does the source give for “CAGATGGCATGGACCGGTTTTCCCGGTAATCCGTATTTGTA (site CAGATGGCTTA)” here?
A: Its value is 2.68.

Q: For “CAGCACGCATGGACCGGTTTTCCCGGTAATCCGTATTTGGG (site AAGCACGCTCC)”, which “recombinant UMI read abundance (log10)” value is on record?
A: Its value is 0.012.

Q: With “CAGCACGCATGGACCGGTTTTCCCGGTAATCCGTATTTGGG (site CAGCACGCTCC)” as the sequence, how does the “recombinant UMI read abundance (log10)” value read?
A: Its value is 0.512.

Q: With “CAGCACGCATGGACCGGTTTTCCCGGTAATCCGTATTTGGG (site GAGCACGCTCC)” as the sequence, how does the “recombinant UMI read abundance (log10)” value read?
A: The value was 0.0111.

Q: Which “recombinant UMI read abundance (log10)” value does the source give for “CAGCACGCATGGACCGGTTTTCCCGGTAATCCGTATTTGGG (site TAGCACGCTCC)” here?
A: Its value is 0.0838.

Q: For “CAGCAGCCATGGACCGGTTTTCCCGGTAATCCGTATTTGGT (site CAGCAGCCTAC)”, which “recombinant UMI read abundance (log10)” value is on record?
A: Its value is 0.642.

Q: Which “recombinant UMI read abundance (log10)” value does the source give for “CAGCATGCATGGACCGGTTTTCCCGGTAATCCGTATTTGAA (site CAGCATGCTTT)” here?
A: Its value is 2.7.

Q: With “CAGCCAACATGGACCGGTTTTCCCGGTAATCCGTATTTGCA (site CAGCCAACTTG)” as the sequence, how does the “recombinant UMI read abundance (log10)” value read?
A: The value was 2.34.

Q: For “CAGCGGTCATGGACCGGTTTTCCCGGTAATCCGTATTTGCC (site CAGCGGTCTGG)”, which “recombinant UMI read abundance (log10)” value is on record?
A: Its value is 2.76.

Q: With “CAGCTCGCATGGACCGGTTTTCCCGGTAATCCGTATTTGTG (site CAGCTCGCTCA)” as the sequence, how does the “recombinant UMI read abundance (log10)” value read?
A: The value was 0.0273.

Q: With “CAGCTGGCATGGACCGGTTTTCCCGGTAATCCGTATTTGAT (site CAGCTGGCTAT)” as the sequence, how does the “recombinant UMI read abundance (log10)” value read?
A: Its value is 1.63.

Q: For “CAGGCATCATGGACCGGTTTTCCCGGTAATCCGTATTTGCA (site CAGGCATCTTG)”, which “recombinant UMI read abundance (log10)” value is on record?
A: The value was 2.53.

Q: Which “recombinant UMI read abundance (log10)” value does the source give for “CAGGCCGCATGGACCGGTTTTCCCGGTAATCCGTATTTGAG (site CAGGCCGCTCT)” here?
A: Its value is 0.33.

Q: With “CAGGGGTCATGGACCGGTTTTCCCGGTAATCCGTATTTGAA (site CAGGGGTCTTT)” as the sequence, how does the “recombinant UMI read abundance (log10)” value read?
A: The value was 3.02.

Q: With “CAGGGTCCATGGACCGGTTTTCCCGGTAATCCGTATTTGGA (site CAGGGTCCTTC)” as the sequence, how does the “recombinant UMI read abundance (log10)” value read?
A: The value was 0.288.

Q: With “CAGGTCACATGGACCGGTTTTCCCGGTAATCCGTATTTGGG (site CAAGTCACTCC)” as the sequence, how does the “recombinant UMI read abundance (log10)” value read?
A: The value was 0.0193.

Q: Which “recombinant UMI read abundance (log10)” value does the source give for “CAGGTCACATGGACCGGTTTTCCCGGTAATCCGTATTTGGG (site CACGTCACTCC)” here?
A: The value was 0.00865.

Q: Which “recombinant UMI read abundance (log10)” value does the source give for “CAGGTCACATGGACCGGTTTTCCCGGTAATCCGTATTTGGG (site CAGGTCACTCC)” here?
A: Its value is 0.0396.

Q: Which “recombinant UMI read abundance (log10)” value does the source give for “CAGGTCACATGGACCGGTTTTCCCGGTAATCCGTATTTGGG (site CATGTCACTCC)” here?
A: The value was 0.0163.

Q: With “CAGGTCACATGGACCGGTTTTCCCGGTAATCCGTATTTGTC (site CAGGTCACTGA)” as the sequence, how does the “recombinant UMI read abundance (log10)” value read?
A: Its value is 2.7.

Q: With “CAGGTGACATGGACCGGTTTTCCCGGTAATCCGTATTTGTA (site CAGGTGACTTA)” as the sequence, how does the “recombinant UMI read abundance (log10)” value read?
A: The value was 1.83.

Q: With “CAGGTGGCATGGACCGGTTTTCCCGGTAATCCGTATTTGCG (site CAGGTGGCTCG)” as the sequence, how does the “recombinant UMI read abundance (log10)” value read?
A: The value was 1.88.

Q: Which “recombinant UMI read abundance (log10)” value does the source give for “CAGTAGACATGGACCGGTTTTCCCGGTAATCCGTATTTGGG (site CAGTAGACTCC)” here?
A: The value was 0.653.

Q: With “CAGTAGACATGGACCGGTTTTCCCGGTAATCCGTATTTGGG (site CAGTCGACTCC)” as the sequence, how does the “recombinant UMI read abundance (log10)” value read?
A: The value was 0.00641.

Q: Which “recombinant UMI read abundance (log10)” value does the source give for “CAGTAGACATGGACCGGTTTTCCCGGTAATCCGTATTTGGG (site CAGTGGACTCC)” here?
A: Its value is 0.00992.

Q: For “CAGTAGACATGGACCGGTTTTCCCGGTAATCCGTATTTGGG (site CAGTTGACTCC)”, which “recombinant UMI read abundance (log10)” value is on record?
A: The value was 0.033.

Q: With “CAGTATCCATGGACCGGTTTTCCCGGTAATCCGTATTTGTT (site CAGTATCCTAA)” as the sequence, how does the “recombinant UMI read abundance (log10)” value read?
A: The value was 1.87.

Q: With “CAGTATCCATGGACCGGTTTTCCCGGTAATCCGTATTTGTT (site CGGAATCCTAA)” as the sequence, how does the “recombinant UMI read abundance (log10)” value read?
A: The value was 0.00316.

Q: With “CAGTCGACATGGACCGGTTTTCCCGGTAATCCGTATTTGGA (site CAGTCGACTAC)” as the sequence, how does the “recombinant UMI read abundance (log10)” value read?
A: The value was 0.0073.

Q: For “CAGTCGACATGGACCGGTTTTCCCGGTAATCCGTATTTGGA (site CAGTCGACTCC)”, which “recombinant UMI read abundance (log10)” value is on record?
A: The value was 0.0138.

Q: Which “recombinant UMI read abundance (log10)” value does the source give for “CAGTCGACATGGACCGGTTTTCCCGGTAATCCGTATTTGGA (site CAGTCGACTGC)” here?
A: Its value is 0.00544.

Q: With “CAGTCGACATGGACCGGTTTTCCCGGTAATCCGTATTTGGA (site CAGTCGACTTC)” as the sequence, how does the “recombinant UMI read abundance (log10)” value read?
A: Its value is 0.0121.

Q: For “CAGTCGACATGGACCGGTTTTCCCGGTAATCCGTATTTGGG (site AAGTCGACTCC)”, which “recombinant UMI read abundance (log10)” value is on record?
A: Its value is 0.0145.

Q: With “CAGTCGACATGGACCGGTTTTCCCGGTAATCCGTATTTGGG (site CAATCGACTCC)” as the sequence, how does the “recombinant UMI read abundance (log10)” value read?
A: Its value is 0.0099.

Q: With “CAGTCGACATGGACCGGTTTTCCCGGTAATCCGTATTTGGG (site CACTCGACTCC)” as the sequence, how does the “recombinant UMI read abundance (log10)” value read?
A: The value was 0.0212.

Q: For “CAGTCGACATGGACCGGTTTTCCCGGTAATCCGTATTTGGG (site CAGACGACTCC)”, which “recombinant UMI read abundance (log10)” value is on record?
A: The value was 0.083.

Q: For “CAGTCGACATGGACCGGTTTTCCCGGTAATCCGTATTTGGG (site CAGCCGACTCC)”, which “recombinant UMI read abundance (log10)” value is on record?
A: Its value is 0.00881.

Q: Which “recombinant UMI read abundance (log10)” value does the source give for “CAGTCGACATGGACCGGTTTTCCCGGTAATCCGTATTTGGG (site CAGGCGACTCC)” here?
A: The value was 0.

Q: With “CAGTCGACATGGACCGGTTTTCCCGGTAATCCGTATTTGGG (site CAGTAGACTCC)” as the sequence, how does the “recombinant UMI read abundance (log10)” value read?
A: Its value is 0.34.

Q: With “CAGTCGACATGGACCGGTTTTCCCGGTAATCCGTATTTGGG (site CAGTCAACTCC)” as the sequence, how does the “recombinant UMI read abundance (log10)” value read?
A: Its value is 0.0265.

Q: Which “recombinant UMI read abundance (log10)” value does the source give for “CAGTCGACATGGACCGGTTTTCCCGGTAATCCGTATTTGGG (site CAGTCCACTCC)” here?
A: Its value is 0.0168.

Q: With “CAGTCGACATGGACCGGTTTTCCCGGTAATCCGTATTTGGG (site CAGTCGACTAC)” as the sequence, how does the “recombinant UMI read abundance (log10)” value read?
A: Its value is 0.0109.

Q: With “CAGTCGACATGGACCGGTTTTCCCGGTAATCCGTATTTGGG (site CAGTCGACTCA)” as the sequence, how does the “recombinant UMI read abundance (log10)” value read?
A: Its value is 0.00973.
